{"source": "patent US12115176B2", "about": "“Methods and compositions relating to ClbP inhibition” (PRESIDENT AND FELLOWS OF HARVARD COLLEGE, priority 2021, dated 2024)", "key": {"[1]": {"system": "serine hydrolases in HEK293T cell lysates", "experiment": "Gel-based ABPP with fluorophosphonate probe (FP)", "type": "binding, human", "settings": "inhibitor up to 100 μM", "from_the_text": "(§1) To further explore other possible targets of inhibitors 1-4, an activity-based protein profiling (ABPP) approach was used to assay their activity against a wide variety of serine hydrolases in bacterial and mammalian proteomes. […] One limitation of this assay is that ClbP is not labeled by the FP probe, so it cannot be observed as a reference for binding. Any other proteins which evade labeling by FP would also not be detected in this assay.\n(§2) Activity-Based Protein Profiling. Bacterial or mammalian cell lysates were normalized to 1 mg/mL protein concentrations in PBS using the DC protein assay (Bio-Rad). 50 μL aliquots of lysates were incubated with compounds at the indicated concentrations (1 μL of a 50X stock in DMSO) for 30 minutes at room temperature and subsequently labeled with 5 μM of fluorophosphonate-PEG(4)-biotin probe (1 μL of a 50X stock in DMSO, synthesized as previously reported)^56 for 1 hour at room temperature. The reactions were mixed with 50 μL of 2X SDS protein loading buffer, boiled for 10 minutes at 95° C., and separated by SDS-PAGE. The labeled proteins were detected by IRdye-conjugated streptavidin (Li-Cor) and visualized using the GellOdyssey™ Imaging System (Li-Cor).^56"}, "Bifidobacterium longum": {"system": "Bifidobacterium longum", "experiment": "Bacterial MIC assay (broth dilution)", "type": "cell-based", "settings": "15 h, read-out: MICs by compound"}, "purified ClbP": {"target": "purified ClbP (Escherichia coli, UniProt Q0P7K6)", "experiment": "ClbP fluorescence activity assay (in vitro)", "type": "biochemical, Escherichia coli CFT073", "from_the_text": "Constructs and protein purification for in vitro assays. ClbP constructs described in this publication were derived from a previously described plasmid containing the Escherichia coli CFT073 ClbP sequence (GenBank ID: NP_754344.1) inserted between the NdeI and XhoI restriction sites of pET29b (Addgene plasmid #48244).^14 All in vitro experiments used a construct bearing a C-terminal 10×His tag. This longer polyhistidine-tag was obtained by extension of the previously described 6×His tag through site-directed mutagenesis. All site-directed mutations were introduced using the Quikchange mutagenesis protocol (Stratagene) and confirmed by Sanger DNA sequencing of the whole open reading frame. Plasmids were transformed into chemically competent C41(DE3) (Lucigen) cells and proteins were isolated as previously described.^34\nClbP fluorescence activity assay (in vitro). Assays were performed in a buffer containing 50 mM Tris, 200 mM NaCl, 0.02% w/v DDM at pH 8.0 with 25 nM purified ClbP and 25 μM fluorogenic substrate in a total volume of 20 μL.^34 Purified ClbP was defrosted on ice from stocks stored at −80° C. Stocks were diluted to 50 nM enzyme in assay buffer in the wells of a black, flat-bottom 384-well plate and the appropriate inhibitor in DMSO or DMSO was added to a final concentration of 1%. For experiments testing different inhibitor concentrations, reactions were allowed to sit for 1 hour at room temperature. For experiments testing different preincubation times, the inhibitor in DMSO was added to each reaction X minutes before initiating the reaction, where X is the time indicated on the x-axis for that sample. For experiments to test whether hydrolysis of the boronic ester was rate-limiting, the inhibitor was added to buffer with no enzyme present and allowed to sit at room temperature for the time indicated before adding the enzyme. In all cases, reactions were initiated by the addition of 10 μL, of buffer containing the 50 μM fluorogenic substrate to achieve a final concentration of 25 μM and pipetting once with a multichannel pipette to mix. Reaction progress was monitored in a plate reader (Bio-Tek Synergy HTX multimode plate reader) with an excitation filter of 360/40 nm and an emission filter of 440/20 nm. “% activity” was determined based on the measured relative fluorescence units (RFU) of each condition after 1 hour using the following formula: […]"}, "[2]": {"system": "purified plasmid DNA incubated with pks+ E. coli", "experiment": "Plasmid DNA crosslinking, denaturing gel electrophoresis", "protocol": "In addition to blocking the metabolic indicators of colibactin biosynthesis, it was also assessed whether 3 could inhibit the genotoxic effects of colibactin on human cells at physiologically accessible concentrations. A previously described infection assay with HeLa cells and pks+E. coli which was modified to include a 1-hour preincubation of the inhibitor with the E. coli as well as inclusion of the inhibitor in the infection medium was used. […] Treatment with 3 was able to completely block this effect at concentrations as low as 5 nM (FIG. 4). It was also confirmed that 3 is not cytotoxic to human cell lines at concentrations up to 10 μM. […] In order to directly assess the impacts of 3 on colibactin's DNA crosslinking activity, purified plasmid DNA was incubated with pks^+ E. coli, then subjected to gel electrophoresis under denaturing conditions."}, "[3]": {"system": "serine hydrolases in E. coli cell lysates", "experiment": "Gel-based ABPP with fluorophosphonate probe (FP)", "type": "binding", "settings": "inhibitor up to 100 μM", "from_the_text": "as §1, §2"}, "Lactobacillus rhamnosus": {"system": "Lactobacillus rhamnosus", "experiment": "Bacterial MIC assay (broth dilution)", "type": "cell-based", "settings": "Lacticaseibacillus rhamnosus, 15 h, read-out: MICs by compound"}}}
{"smiles": "CC1(C)OB([C@@H](CC(N)=O)NC(=O)CCCc2ccccc2)OC1(C)C", "note": "[Compound 3]", "values": [{"measurement": "change in protein labeling by FP probe", "setting": "[1]", "result": "does not identify any significant targets"}, {"measurement": "MIC", "setting": "Bifidobacterium longum", "result": "> 200", "unit": "µM"}, {"measurement": "IC50", "setting": "purified ClbP", "result": 28, "unit": "nM"}, {"measurement": "speed of reaching maximum potency, in words", "setting": "purified ClbP; slow-binding inhibition assay, 100 nM", "result": "achieved their maximum potency faster than compound 4"}, {"measurement": "DNA crosslinking activity", "setting": "[2]", "result": "can suppress DNA crosslinking activity"}, {"measurement": "change in protein labeling by FP probe", "setting": "[3]", "result": "does not identify any significant targets"}, {"measurement": "MIC", "setting": "Lactobacillus rhamnosus", "result": "> 200", "unit": "µM"}]}
